According to paper PMC10999543, “Identification of kinase modulators as host-directed therapeutics against intracellular methicillin-resistant Staphylococcus aureus” (Frontiers in Cellular and Infection Microbiology, 2024):
Read-outs that look alike come from different tables or passages of the source.

How the values were obtained:
intracellular MRSA = type: cell-based, Staphylococcus aureus; conditions: for %GFP+ rep 1 / z-scoreMRSA+ rep 1: replicate 1; for %GFP+ rep 2 / z-scoreMRSA+ rep 2: replicate 2; for %GFP+ rep 3 / z-scoreMRSA+ rep 3: replicate 3; for z-scoreMRSA+ mean: mean of 3 replicates
How it was run: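 HeLa, MRSA-GFP at MOI ~6.8, 1 h infection; gentamicin 30 µg/ml for 15 min; inhibitor plus gentamicin 5 µg/ml overnight, 37°C/5% CO2; triplicate plates; FACS %GFP+ and cell count; hit = z ≤ -2 MRSA+, z ≥ -3 count.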

HeLa cells = assay: Compound screen by flow cytometry: HeLa cell count as surrogate readout of cell viability (z-scoreHeLa); type: cell-based, human; conditions: for cell count rep 1 / z-scoreHeLa rep 1: replicate 1; for cell count rep 2 / z-scoreHeLa rep 2: replicate 2; for cell count rep 3 / z-scoreHeLa rep 3: replicate 3; for z-scoreHeLa mean: mean of 3 replicates
How it was run: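 HeLa cells were infected with GFP-MRSA (mean MOI 6.8 ± 4.6) for 1 h, and extracellular bacteria were killed with 30 µg/ml gentamicin. Cells were then incubated overnight with kinase inhibitors in 5 µg/ml gentamicin, in triplicate against DMSO controls. Flow-cytometric cell count served as a viability surrogate, expressed as a plate z-score.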

[1] = PKIS compounds raw data, MRSA-infected HeLa cells
[2] = Yes/No: effect without cell death
[3] = compound screen, MRSA-infected HeLa cells
[4] = PKIS compounds raw data, HeLa cell count
[5] = compound screen, HeLa cell count
[6] = PKIS compound screen raw data, MRSA-infected HeLa cells
[7] = PKIS compound screen, MRSA-infected HeLa cells
[8] = PKIS compound screen, Yes/No call
[9] = PKIS compound screen, Yes/No call (effect without cell death)
[10] = PKIS compound screen, Yes/No call on z-scoreMRSA+
[11] = PKIS compound screen raw data, HeLa cell count
[12] = PKIS compound screen, HeLa cell count
[13] = PKIS compound screen, Yes/No call on z-scoreHeLa

## CS(=O)(=O)Nc1ccc(N/C=C2\C(=O)Nc3ccccc32)cc1 [GW278681X]
Intracellular MRSA; [1]
  %GFP+ rep 1: 11.9%
  %GFP+ rep 2: 13.7%
  %GFP+ rep 3: 12.4%
Intracellular MRSA; Yes/No call from z-scoreMRSA+
  effect: No
Intracellular MRSA; [2]
  hit: No
Intracellular MRSA; [3]
  z-scoreMRSA+ mean: -0.46
  z-scoreMRSA+ rep 1: -0.41
  z-scoreMRSA+ rep 2: 0.07
  z-scoreMRSA+ rep 3: -1.03
HeLa cells; [4]
  cell count rep 1: 4258
  cell count rep 2: 4720
  cell count rep 3: 6630
HeLa cells; Yes/No call from z-scoreHeLa
  cell death: No
HeLa cells; [5]
  z-scoreHeLa mean: -0.10
  z-scoreHeLa rep 1: -0.47
  z-scoreHeLa rep 2: 0.34
  z-scoreHeLa rep 3: -0.16

## CN(c1ccc2c(c1)nc(NCc1ccccc1)n2C)c1ccnc(Nc2ccc(CS(C)(=O)=O)cc2)n1 [GW811603A]
Intracellular MRSA; [1]
  %GFP+ rep 1: 29.9%
  %GFP+ rep 2: 27.8%
  %GFP+ rep 3: 24.6%
Intracellular MRSA; Yes/No call from z-scoreMRSA+
  effect: No
Intracellular MRSA; [2]
  hit: No
Intracellular MRSA; [3]
  z-scoreMRSA+ mean: 1.02
  z-scoreMRSA+ rep 1: 1.08
  z-scoreMRSA+ rep 2: 1.26
  z-scoreMRSA+ rep 3: 0.72
HeLa cells; [4]
  cell count rep 1: 3958
  cell count rep 2: 3626
  cell count rep 3: 4329
HeLa cells; Yes/No call from z-scoreHeLa
  cell death: No
HeLa cells; [5]
  z-scoreHeLa mean: -0.46
  z-scoreHeLa rep 1: -0.28
  z-scoreHeLa rep 2: -0.52
  z-scoreHeLa rep 3: -0.57

## Nc1nc(-c2ccc3c(c2)C(=Cc2cc(Br)c(O)c(Br)c2)C(=O)N3)cs1 [GW407323A]
Intracellular MRSA; [1]
  %GFP+ rep 1: 16.4%
  %GFP+ rep 2: 13.5%
  %GFP+ rep 3: 13.8%
Intracellular MRSA; Yes/No call from z-scoreMRSA+
  effect: No
Intracellular MRSA; [2]
  hit: No
Intracellular MRSA; [3]
  z-scoreMRSA+ mean: 0.14
  z-scoreMRSA+ rep 1: 1.03
  z-scoreMRSA+ rep 2: 0.0015
  z-scoreMRSA+ rep 3: -0.62
HeLa cells; [4]
  cell count rep 1: 5658
  cell count rep 2: 5858
  cell count rep 3: 9419
HeLa cells; Yes/No call from z-scoreHeLa
  cell death: No
HeLa cells; [5]
  z-scoreHeLa mean: 1.06
  z-scoreHeLa rep 1: 0.80
  z-scoreHeLa rep 2: 1.20
  z-scoreHeLa rep 3: 1.18

## O=C(Nc1ccccc1F)NC1CCN(c2ccnc(Nc3ccc(F)cc3)n2)C1 (stereo not drawn) [GSK1379722A]
Intracellular MRSA; [6]
  %GFP+ rep 1: 20.2%
  %GFP+ rep 2: 23.8%
  %GFP+ rep 3: 25.6%
Intracellular MRSA; [7]
  z-scoreMRSA+ mean: 1.37
  z-scoreMRSA+ rep 1: 0.74
  z-scoreMRSA+ rep 2: 1.59
  z-scoreMRSA+ rep 3: 1.77
Intracellular MRSA; [8]
  effect: No
Intracellular MRSA; [9]
  hit: No
Intracellular MRSA; [10]
  effect: No
Intracellular MRSA; PKIS compound screen
  z-scoreMRSA+ mean: 1.11
  z-scoreMRSA+ rep 1: 1.04
  z-scoreMRSA+ rep 2: 1.28
  z-scoreMRSA+ rep 3: 1.01
Intracellular MRSA; [1]
  %GFP+ rep 1: 32.4%
  %GFP+ rep 2: 32.7%
  %GFP+ rep 3: 32.7%
HeLa cells; [11]
  cell count rep 1: 32994
  cell count rep 2: 39130
  cell count rep 3: 43503
HeLa cells; [12]
  z-scoreHeLa mean: 1.08
  z-scoreHeLa rep 1: 1.95
  z-scoreHeLa rep 2: 0.81
  z-scoreHeLa rep 3: 0.47
HeLa cells; [8]
  cell death: No
HeLa cells; [13]
  cell death: No
HeLa cells; PKIS compound screen
  z-scoreHeLa mean: 0.96
  z-scoreHeLa rep 1: 1.17
  z-scoreHeLa rep 2: 0.61
  z-scoreHeLa rep 3: 1.09
HeLa cells; [4]
  cell count rep 1: 7997
  cell count rep 2: 6922
  cell count rep 3: 7324

## CN1CCN(Cc2ccc(NC(=O)Nc3ccc(N(C)c4ccnc(Nc5ccc(CS(C)(=O)=O)cc5)n4)cc3)cc2)CC1 [GW827654A]
Intracellular MRSA; [6]
  %GFP+ rep 1: 24.8%
  %GFP+ rep 2: 24.9%
  %GFP+ rep 3: 25.0%
Intracellular MRSA; Yes/No call from z-scoreMRSA+
  effect: No
Intracellular MRSA; [2]
  hit: No
Intracellular MRSA; [3]
  z-scoreMRSA+ mean: 1.38
  z-scoreMRSA+ rep 1: 1.61
  z-scoreMRSA+ rep 2: 1.50
  z-scoreMRSA+ rep 3: 1.03
HeLa cells; [11]
  cell count rep 1: 30631
  cell count rep 2: 31592
  cell count rep 3: 23281
HeLa cells; Yes/No call from z-scoreHeLa
  cell death: No
HeLa cells; [5]
  z-scoreHeLa mean: 0.67
  z-scoreHeLa rep 1: 0.07
  z-scoreHeLa rep 2: 1.08
  z-scoreHeLa rep 3: 0.85

## Cc1ccccc1CC(=O)N1CCc2cc(-c3cn(C)c4ncnc(N)c34)ccc21 [GSK2603346A]
Intracellular MRSA; [6]
  %GFP+ rep 1: 20.6%
  %GFP+ rep 2: 20.8%
  %GFP+ rep 3: 20.5%
Intracellular MRSA; [7]
  z-scoreMRSA+ mean: 0.59
  z-scoreMRSA+ rep 1: 0.87
  z-scoreMRSA+ rep 2: 0.68
  z-scoreMRSA+ rep 3: 0.22
Intracellular MRSA; [9]
  hit: No
Intracellular MRSA; [10]
  effect: No
HeLa cells; [11]
  cell count rep 1: 19984
  cell count rep 2: 27840
  cell count rep 3: 38532
HeLa cells; [12]
  z-scoreHeLa mean: -0.54
  z-scoreHeLa rep 1: -0.02
  z-scoreHeLa rep 2: -1.30
  z-scoreHeLa rep 3: -0.32
HeLa cells; [13]
  cell death: No

## Fc1ccc(-c2ncn(C3CCNCC3)c2-c2ccnc(Oc3ccc(F)c(F)c3)n2)cc1 [SB-253228]
Intracellular MRSA; [6]
  %GFP+ rep 1: 13.5%
  %GFP+ rep 2: 14.9%
  %GFP+ rep 3: 15.9%
Intracellular MRSA; [7]
  z-scoreMRSA+ mean: -1.22
  z-scoreMRSA+ rep 1: -1.38
  z-scoreMRSA+ rep 2: -1.09
  z-scoreMRSA+ rep 3: -1.18
Intracellular MRSA; [9]
  hit: No
Intracellular MRSA; [10]
  effect: No
HeLa cells; [11]
  cell count rep 1: 9973
  cell count rep 2: 28239
  cell count rep 3: 36229
HeLa cells; [12]
  z-scoreHeLa mean: -1.15
  z-scoreHeLa rep 1: -1.54
  z-scoreHeLa rep 2: -1.22
  z-scoreHeLa rep 3: -0.68
HeLa cells; [13]
  cell death: No

## O=C(c1ccc(-c2cc(-c3c[nH]nc3-c3ccccn3)ccn2)cc1)N1CCCC1 [GW792479X]
Intracellular MRSA; [6]
  %GFP+ rep 1: 20.2%
  %GFP+ rep 2: 21.2%
  %GFP+ rep 3: 21.9%
Intracellular MRSA; Yes/No call from z-scoreMRSA+
  effect: No
Intracellular MRSA; [2]
  hit: No
Intracellular MRSA; [3]
  z-scoreMRSA+ mean: 0.35
  z-scoreMRSA+ rep 1: 0.38
  z-scoreMRSA+ rep 2: 0.49
  z-scoreMRSA+ rep 3: 0.18
HeLa cells; [11]
  cell count rep 1: 29405
  cell count rep 2: 27776
  cell count rep 3: 26310
HeLa cells; Yes/No call from z-scoreHeLa
  cell death: No
HeLa cells; [5]
  z-scoreHeLa mean: 0.58
  z-scoreHeLa rep 1: -0.13
  z-scoreHeLa rep 2: 0.43
  z-scoreHeLa rep 3: 1.44

## Cc1ccnc2ccc(-c3sc(N)nc3-c3ccccn3)nc12 [GW777257X]
Intracellular MRSA; [6]
  %GFP+ rep 1: 20.9%
  %GFP+ rep 2: 19.0%
  %GFP+ rep 3: 19.9%
Intracellular MRSA; Yes/No call from z-scoreMRSA+
  effect: No
Intracellular MRSA; [2]
  hit: No
Intracellular MRSA; [3]
  z-scoreMRSA+ mean: -0.86
  z-scoreMRSA+ rep 1: -1.02
  z-scoreMRSA+ rep 2: -0.88
  z-scoreMRSA+ rep 3: -0.69
HeLa cells; [11]
  cell count rep 1: 3590
  cell count rep 2: 3185
  cell count rep 3: 3623
HeLa cells; Yes/No call from z-scoreHeLa
  cell death: No
HeLa cells; [5]
  z-scoreHeLa mean: -0.81
  z-scoreHeLa rep 1: -0.55
  z-scoreHeLa rep 2: -0.86
  z-scoreHeLa rep 3: -1.02

## COc1cc(C)c(N(C)C(=O)CN(C)C)cc1Nc1nc(Nc2cccc(F)c2C(N)=O)c2cc[nH]c2n1 [GSK2219385A]
Intracellular MRSA; [6]
  %GFP+ rep 1: 15.2%
  %GFP+ rep 2: 16.3%
  %GFP+ rep 3: 17.5%
Intracellular MRSA; [7]
  z-scoreMRSA+ mean: -0.74
  z-scoreMRSA+ rep 1: -0.84
  z-scoreMRSA+ rep 2: -0.67
  z-scoreMRSA+ rep 3: -0.70
Intracellular MRSA; [9]
  hit: No
Intracellular MRSA; [10]
  effect: No
HeLa cells; [11]
  cell count rep 1: 14421
  cell count rep 2: 25742
  cell count rep 3: 38560
HeLa cells; [12]
  z-scoreHeLa mean: -0.95
  z-scoreHeLa rep 1: -0.86
  z-scoreHeLa rep 2: -1.69
  z-scoreHeLa rep 3: -0.31
HeLa cells; [13]
  cell death: No

## COc1ccc(S(=O)(=O)NC2CCN(c3cc(C)nc(Nc4cccc(C#N)c4)n3)CC2)cc1 [GSK1653539A]
Intracellular MRSA; [6]
  %GFP+ rep 1: 17.8%
  %GFP+ rep 2: 20.5%
  %GFP+ rep 3: 23.1%
Intracellular MRSA; [7]
  z-scoreMRSA+ mean: 0.18
  z-scoreMRSA+ rep 1: -0.26
  z-scoreMRSA+ rep 2: 0.30
  z-scoreMRSA+ rep 3: 0.51
Intracellular MRSA; [8]
  effect: No
Intracellular MRSA; [9]
  hit: No
Intracellular MRSA; [10]
  effect: No
Intracellular MRSA; PKIS compound screen
  z-scoreMRSA+ mean: 0.99
  z-scoreMRSA+ rep 1: 0.85
  z-scoreMRSA+ rep 2: 0.68
  z-scoreMRSA+ rep 3: 1.43
Intracellular MRSA; [1]
  %GFP+ rep 1: 31.4%
  %GFP+ rep 2: 29.6%
  %GFP+ rep 3: 35.0%
HeLa cells; [11]
  cell count rep 1: 25166
  cell count rep 2: 21326
  cell count rep 3: 16886
HeLa cells; [12]
  z-scoreHeLa mean: -0.64
  z-scoreHeLa rep 1: -0.85
  z-scoreHeLa rep 2: -0.68
  z-scoreHeLa rep 3: -0.40
HeLa cells; [8]
  cell death: No
HeLa cells; [13]
  cell death: No
HeLa cells; PKIS compound screen
  z-scoreHeLa mean: 0.33
  z-scoreHeLa rep 1: 0.22
  z-scoreHeLa rep 2: 0.92
  z-scoreHeLa rep 3: -0.16
HeLa cells; [4]
  cell count rep 1: 6417
  cell count rep 2: 7400
  cell count rep 3: 5350
